ChEMBL document CHEMBL1149199 (Bioorg Med Chem Lett, 2004)

Legend:
[1] = target: T1, Sodium-dependent dopamine transporter (Homo sapiens, UniProt Q01959); test: Ability to inhibit [3H]mazindol binding to cloned human dopamine (DA) transporter
[2] = target: T2, Sodium-dependent serotonin transporter (Homo sapiens, UniProt P31645)
Description: Ability to inhibit [3H]paroxetine binding to cloned human serotonin (5-HT) transporter

[3] = target: T3, Sodium-dependent noradrenaline transporter (Homo sapiens, UniProt P23975)
[4] = target: T3, Sodium-dependent noradrenaline transporter; test: Ability to inhibit [3H]nisoxetine binding to cloned human norepinephrine (NE) transporter; Average of two experiments
[5] = target: T1, Sodium-dependent dopamine transporter
Description: Ability to inhibit [3H]mazindol binding to cloned human dopamine (DA) transporter; Average of two experiments

[6] = target: T2, Sodium-dependent serotonin transporter; remark: listed apart in the source
Description: Ability to inhibit [3H]paroxetine binding to cloned human serotonin (5-HT) transporter; Average of two experiments

T1 sequence (Q01959 whole entry): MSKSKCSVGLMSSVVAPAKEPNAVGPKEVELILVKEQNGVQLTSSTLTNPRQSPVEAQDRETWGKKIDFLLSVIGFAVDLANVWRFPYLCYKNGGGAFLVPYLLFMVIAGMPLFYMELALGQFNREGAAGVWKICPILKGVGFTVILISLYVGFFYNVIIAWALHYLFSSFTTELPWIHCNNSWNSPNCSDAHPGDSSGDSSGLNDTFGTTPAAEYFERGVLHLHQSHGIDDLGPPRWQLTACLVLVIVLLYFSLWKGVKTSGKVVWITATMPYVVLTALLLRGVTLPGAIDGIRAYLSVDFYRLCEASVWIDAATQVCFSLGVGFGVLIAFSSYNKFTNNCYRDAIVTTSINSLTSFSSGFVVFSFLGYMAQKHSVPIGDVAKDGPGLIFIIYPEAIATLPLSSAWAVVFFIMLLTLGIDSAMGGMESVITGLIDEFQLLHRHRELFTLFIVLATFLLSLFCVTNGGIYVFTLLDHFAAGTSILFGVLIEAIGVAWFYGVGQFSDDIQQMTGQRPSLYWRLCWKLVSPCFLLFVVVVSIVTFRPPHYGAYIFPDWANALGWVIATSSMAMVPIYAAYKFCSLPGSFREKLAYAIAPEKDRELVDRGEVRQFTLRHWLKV
T2 sequence (P31645 whole entry): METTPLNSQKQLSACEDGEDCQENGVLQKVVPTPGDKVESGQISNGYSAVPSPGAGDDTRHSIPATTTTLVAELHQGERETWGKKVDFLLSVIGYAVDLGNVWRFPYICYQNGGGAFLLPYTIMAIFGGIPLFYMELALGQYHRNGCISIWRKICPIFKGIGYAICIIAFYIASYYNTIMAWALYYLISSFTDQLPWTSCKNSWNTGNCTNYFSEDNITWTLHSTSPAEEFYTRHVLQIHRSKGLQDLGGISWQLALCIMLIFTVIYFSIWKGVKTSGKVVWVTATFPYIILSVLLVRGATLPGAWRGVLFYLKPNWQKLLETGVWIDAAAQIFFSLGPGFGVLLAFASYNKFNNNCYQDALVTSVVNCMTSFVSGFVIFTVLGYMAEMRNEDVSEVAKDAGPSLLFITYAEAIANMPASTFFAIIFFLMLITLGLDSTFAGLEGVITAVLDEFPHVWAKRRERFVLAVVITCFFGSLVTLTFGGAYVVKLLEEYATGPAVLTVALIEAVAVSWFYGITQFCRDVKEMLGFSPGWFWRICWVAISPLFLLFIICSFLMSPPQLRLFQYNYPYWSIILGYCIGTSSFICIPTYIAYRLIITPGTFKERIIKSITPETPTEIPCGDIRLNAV
T3 sequence (P23975 whole entry): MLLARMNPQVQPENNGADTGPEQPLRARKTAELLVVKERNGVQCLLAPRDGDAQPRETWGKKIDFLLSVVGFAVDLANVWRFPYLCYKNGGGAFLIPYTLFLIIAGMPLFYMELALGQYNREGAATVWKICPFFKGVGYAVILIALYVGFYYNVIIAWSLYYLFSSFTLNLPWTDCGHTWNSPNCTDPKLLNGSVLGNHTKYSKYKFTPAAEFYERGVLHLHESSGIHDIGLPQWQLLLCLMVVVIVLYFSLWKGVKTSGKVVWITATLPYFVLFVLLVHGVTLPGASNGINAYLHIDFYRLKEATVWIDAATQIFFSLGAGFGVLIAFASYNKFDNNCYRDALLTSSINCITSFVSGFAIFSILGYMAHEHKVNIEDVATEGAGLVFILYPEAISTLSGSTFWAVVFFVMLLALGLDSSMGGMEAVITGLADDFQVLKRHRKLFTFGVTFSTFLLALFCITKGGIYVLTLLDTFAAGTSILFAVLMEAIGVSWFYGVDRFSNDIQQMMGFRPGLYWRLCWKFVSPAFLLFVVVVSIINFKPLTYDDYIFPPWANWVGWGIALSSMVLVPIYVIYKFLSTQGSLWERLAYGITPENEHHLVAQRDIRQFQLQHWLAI

SMILES | Ki [1] [nM] | Ki [2] [nM] | Ki [3] [nM] | Ki [4] [nM] | Ki [5] [nM] | Ki [6] [nM]
CNCC[C@H](Oc1cccc2c(O)c(OC)ccc12)c1cccs1 | 2810 | 266 | 920 |  |  | 
CNCC[C@H](Oc1cccc2cc(O[C@@H]3O[C@H](C(=O)O)[C@@H](O)[C@H](O)[C@H]3O)ccc12)c1cccs1 | > 10000 | 1460 | 5450 |  |  | 
CNCC[C@H](Oc1ccc(O[C@@H]2O[C@H](C(=O)O)[C@@H](O)[C@H](O)[C@H]2O)c2ccccc12)c1cccs1 | 3510 | > 10000 | > 10000 |  |  | 
CNCC[C@H](Oc1cccc2c(O[C@@H]3O[C@H](C(=O)O)[C@@H](O)[C@H](O)[C@H]3O)c(O[C@@H]3O[C@H](C(=O)O)[C@@H](O)[C@H](O)[C@H]3O)ccc12)c1cccs1 | > 10000 | > 10000 | > 10000 |  |  | 
CNCC[C@H](Oc1cccc2c(O[C@@H]3O[C@H](C(=O)O)[C@@H](O)[C@H](O)[C@H]3O)c(OC)ccc12)c1cccs1 | > 10000 | > 10000 | > 10000 |  |  | 
CNCC[C@H](Oc1cccc2c(O)cccc12)c1cccs1 |  |  |  | 18.4 | 241 | 9.6
CNCC[C@H](Oc1cccc2c(OC)c(O)ccc12)c1cccs1 |  |  |  | 235 | 353 | 3.66
CNCC[C@H](Oc1ccc(O)c2ccccc12)c1cccs1 |  |  |  | 97.1 | 130 | 63.9
CNCC[C@H](Oc1cccc2cc(O)ccc12)c1cccs1 |  |  |  | 4.72 | 163 | 1.06
CNCC[C@H](Oc1cccc2c(OS(=O)(=O)O)c(OC)ccc12)c1cccs1 | > 10000 | 3120 | > 10000 |  |  | 
CNCC[C@H](Oc1cccc2c(O)c(O)ccc12)c1cccs1 (stereo in doubt; form 1) | > 10000 | 31.7 | 554 |  |  | 
CNCC[C@H](Oc1cccc2c(O)c(O)ccc12)c1cccs1 (stereo in doubt; form 2) | 7270 | 120 | 695 |  |  | 
